Data from patent publication US20240308998A1, “PYRROLOPYRIDONE DERIVATIVES USEFUL IN THE TREATMENT OF CANCER” (Tay Therapeutics Limited, priority 2021, published 2024).

Tests used:
Mouse plasma stability = type: in vitro ADME; conditions: 10 μM in mouse plasma, 37° C.
Protocol: The stock solution of compound (10 or 50 mM) was prepared in DMSO. From the stock solution, a working solution of compound (500 uM) was prepared in DMSO (100%). To 735 μL of mouse plasma, 15 μL of working solution of compound was added—resulting in a final concentration of 10 μM (2% DMSO) for the compound. The sample was then incubated at 37° C. Aliquot was withdrawn at time-points—0, 15, 30, 60, 90 and 120 mins. The reaction was stopped by using chilled acetonitrile containing internal standard (IS). The samples were centrifuged and the supernatants analyzed using LC-MS/MS. The percent remaining of the compound at each time point was calculated with respect to the control sample (0 min time-point).

[1] = Intrinsic clearance in mouse liver microsomes; type: in vitro ADME; conditions: 1 uM, NADPH
Protocol: A 50 mM stock solution (in DMSO) was prepared for the compound. From the stock solution, a working solution of 0.5 mM was prepared by diluting the compound in DMSO. This concentration of working solution was prepared considering a final concentration of 1 uM with 0.1% DMSO. The compound (1 uL of working solution) was spiked in PBS with pH 7.4 (22 uL) at a concentration of 1 uM. Subsequently, 110 uL of 10 mM NADPH was added (as a co-factor). The sample was incubated at 37° C. for 15 min. Following this, pre-warmed mouse liver microsomes (27.5 uL; final protein conc. 0.5 mg/mL) were added. The samples were then incubated at 37° C. Aliquots of samples were withdrawn at 0, 5, 15, 30, 45 and 60 min. The reaction was stopped by using chilled acetonitrile containing internal standard. The samples were centrifuged and the supernatants analysed by LC-MS/MS. The percent compound remaining at each time point was calculated with respect to that of the 0 min sample. The data were then analysed to calculate half-life and intrinsic clearance (CLint). Note that control samples were run without NADPH and blank samples were prepared using DMSO without the test compound.

BRD4 BD2 = target: T1, BRD4 BD2 (Homo sapiens, UniProt O60885); test: NanoBRET bromodomain assay, BRD4 BD2; type: cell-based; conditions: for Fold selectivity BRD4 BD1/BD2: IC50 BD1/IC50 BD2; for IC50: NanoBRET, HEK293 cells transfected with NanoLuc-BRD4-BD2
T1 construct: HEK293 cells were transfected using NanoLuc-BRD4-BD1 or NanoLuc-BRD4-BD2 fusion vectors; host or cells: HEK293
Procedure, shortened: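 HEK293 cells transfected with NanoLuc-BRD4-BD2 fusion for 20-24 h, then treated with compound plus 1x tracer for 2 h at 37° C. Donor 450 nm / acceptor 610 nm emissions converted to background-corrected mBU; IC50 by nonlinear regression; selectivity as IC50 BD1/IC50 BD2.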

BRD4 BD1 = target: T2, BRD4 BD1 (Homo sapiens, UniProt O60885); test: NanoBRET bromodomain assay, BRD4 BD1; type: cell-based; conditions: HEK293 cells transfected with NanoLuc-BRD4-BD1
T2 construct: HEK293 cells were transfected using NanoLuc-BRD4-BD1 or NanoLuc-BRD4-BD2 fusion vectors; host or cells: HEK293
Procedure, shortened: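 Transfected HEK293 cells expressing NanoLuc-BRD4-BD1 were incubated with 1x tracer and serially diluted compound for 2 h at 37 °C, then given Nano-Glo substrate plus extracellular NanoLuc inhibitor. Donor 450 nm and acceptor 610 nm emissions were converted to background-corrected mBU, and IC50 was derived by nonlinear regression.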

Compound | Mouse Plasma Stability % remaining at 120 minutes (Mouse plasma stability) [%] | Mouse Microsomal Stability (intrinsic clearance) [1] [ml/min/g liver] | Fold selectivity BRD4 BD1/BD2 (BRD4 BD2) | IC50 (BRD4 BD2) [nM] | IC50 (BRD4 BD1) [nM]
CCNC(=O)c1cc2c(-c3ccn(C)c(=O)c3Oc3c(C)cc(F)cc3C)cn(C)c(=O)c2[nH]1 [Comparative Example A, reference compound] | 7 | 0.9 | xx (Fold >50 and ≤200) | 50 to 200 | > 1000
Cc1cc(F)cc(C)c1Oc1c(-c2cn(C)c(=O)c3[nH]c(C(=O)NC(C)(C)C)cc23)ccn(C)c1=O [Comparative Example B, reference compound] | 100 | 5.1 |  |  | 
Cc1cnc(-c2cc3c(-c4cc(=O)n(C)cc4Oc4c(C)cccc4C)cn(C)c(=O)c3[nH]2)[nH]1 [Example 1, 4-(5-(2,6-dimethylphenoxy)-1-methyl-2-oxo-1,2-dihydropyridin-4-yl)-6-methyl-2-(5-methyl-1H-imidazol-2-yl)-1,6-dihydro-7H-pyrrolo [2,3-c] pyridin-7-one] | 95 | 0.7 | xxx (Fold >200) | ≤ 50 | > 1000

Second part, the molecule after the results:

Mouse Plasma Stability % remaining at 120 minutes (Mouse plasma stability) [%] | Mouse Microsomal Stability (intrinsic clearance) [1] [ml/min/g liver] | Fold selectivity BRD4 BD1/BD2 (BRD4 BD2) | IC50 (BRD4 BD2) [nM] | IC50 (BRD4 BD1) [nM] | Compound
100 | 0.9 | xx (Fold >50 and ≤200) | ≤ 50 | > 1000 | Cc1cccc(C)c1Oc1cn(C)c(=O)cc1-c1cn(C)c(=O)c2[nH]c(-c3ncc[nH]3)cc12 [Example 2, 4-(5-(2,6-dimethylphenoxy)-1-methyl-2-oxo-1,2-dihydropyridin-4-yl)-2-(1H-imidazol-2-yl)-6-methyl-1,6-dihydro-7H-pyrrolo [2,3-c] pyridin-7-one]
77 | 0.5 | xxx (Fold >200) | ≤ 50 | > 1000 | Cc1cccc(C)c1Oc1cn(C)c(=O)cc1-c1cn(C)c(=O)c2[nH]c(-c3ncc(C(F)(F)F)[nH]3)cc12 [Example 3, 4-(5-(2,6-dimethylphenoxy)-1-methyl-2-oxo-1,2-dihydropyridin-4-yl)-6-methyl-2-(5-(trifluoromethyl)-1H-imidazol-2-yl)-1,6-dihydro-7H-pyrrolo[2,3-c] pyridin-7-one]
 | 0.6 | x (Fold >2 and ≤50) | 200 to 1000 | > 1000 | Cc1cccc(C)c1Oc1cn(C)c(=O)cc1-c1cn(C)c(=O)c2[nH]c(C3=NCCN3)cc12 [Example 4, 2-(4,5-dihydro-1H-imidazol-2-yl)-4-(5-(2,6-dimethylphenoxy)-1-methyl-2-oxo-1,2-dihydropyridin-4-yl)-6-methyl-1,6-dihydro-7H-pyrrolo[2,3-c]pyridin-7-one]
 | 0.6 | xx (Fold >50 and ≤200) | 50 to 200 | > 1000 | Cc1cnc(-c2cc3c(-c4cc(=O)n(C)cc4-c4ccccc4)cn(C)c(=O)c3[nH]2)[nH]1 [Example 5, 6-methyl-2-(5-methyl-1H-imidazol-2-yl)-4-(1-methyl-2-oxo-5-phenyl-1,2-dihydropyridin-4-yl)-1,6-dihydro-7H-pyrrolo [2,3-c] pyridin-7-one]
